In ChEMBL document CHEMBL1649179, “Pharmacokinetics of LB80331 and LB80317 following oral administration of LB80380, a new antiviral agent for chronic hepatitis B (CHB), in healthy adult subjects, CHB patients, and mice” (Antimicrob Agents Chemother, 2009) one finds Activity and FC data, which are given here for 1 compound.

Series [1] concerns Homo sapiens. The series is described as follows: Toxicity in chronic hepatitis B virus infected patient assessed as serum ALT level at 30 mg, po qd for 4 weeks by LC-MS analysis. Particulars: in vivo, 672 h. It is filed as organism-based.
Series [2] concerns Homo sapiens. The series can be described thus: Toxicity in chronic hepatitis B virus infected patient assessed as serum ALT level at 120 mg, po qd for 4 weeks by LC-MS analysis. It is filed as organism-based. Particulars: in vivo, 672 h.
The test system of series [3] is Hepatitis B virus. The series can be described thus: Antiviral activity against hepatitis B virus infected in human assessed as log reduction in viral titer per ml of serum at 240 mg, po qd for 4 weeks. Format: functional.
In series [4] the test system is Hepatitis B virus. The series is described as follows: Antiviral activity against hepatitis B virus infected in human assessed as log reduction in viral titer per ml of serum at 30 mg, po qd for 4 weeks. Format: functional.
The test system of series [5] is Homo sapiens. The series can be described thus: Toxicity in chronic hepatitis B virus infected patient assessed as serum ALT level at 240 mg, po qd for 4 weeks by LC-MS analysis. Format: organism-based. The settings on record: in vivo, 672 h.
Series [6] has as its system Homo sapiens. The series is described as follows: Toxicity in chronic hepatitis B virus infected patient assessed as serum ALT level at 60 mg, po qd for 4 weeks by LC-MS analysis. Format: organism-based. Particulars: in vivo, 672 h.

In the case of `CC(C)(C)C(=O)OCOP(=O)(COC1(Cn2cnc3cnc(N)nc32)CC1)OCOC(=O)C(C)(C)C` [LB80380], the Activity with Homo sapiens [1] was 79.5 U/L; with Homo sapiens [2] it was 34.5 U/L; with Homo sapiens [5], 27 U/L; in the series on Homo sapiens [6], 68.7 U/L. The FC with Hepatitis B virus [3] came out at 3.8; in the series with Hepatitis B virus [4] it was 3.02.
